Data published in patent US8188139B2, “Heterocyclic-substituted phenyl methanones” (Hoffman-La Roche Inc., priority 2005, dated 2012).

Target: T1, mGlyT-1b (Mus musculus, UniProt P28571)
T1 construct: host or cells: Flp-in-CHO
T1 sequence (P28571 1-651 isoform P28571-2): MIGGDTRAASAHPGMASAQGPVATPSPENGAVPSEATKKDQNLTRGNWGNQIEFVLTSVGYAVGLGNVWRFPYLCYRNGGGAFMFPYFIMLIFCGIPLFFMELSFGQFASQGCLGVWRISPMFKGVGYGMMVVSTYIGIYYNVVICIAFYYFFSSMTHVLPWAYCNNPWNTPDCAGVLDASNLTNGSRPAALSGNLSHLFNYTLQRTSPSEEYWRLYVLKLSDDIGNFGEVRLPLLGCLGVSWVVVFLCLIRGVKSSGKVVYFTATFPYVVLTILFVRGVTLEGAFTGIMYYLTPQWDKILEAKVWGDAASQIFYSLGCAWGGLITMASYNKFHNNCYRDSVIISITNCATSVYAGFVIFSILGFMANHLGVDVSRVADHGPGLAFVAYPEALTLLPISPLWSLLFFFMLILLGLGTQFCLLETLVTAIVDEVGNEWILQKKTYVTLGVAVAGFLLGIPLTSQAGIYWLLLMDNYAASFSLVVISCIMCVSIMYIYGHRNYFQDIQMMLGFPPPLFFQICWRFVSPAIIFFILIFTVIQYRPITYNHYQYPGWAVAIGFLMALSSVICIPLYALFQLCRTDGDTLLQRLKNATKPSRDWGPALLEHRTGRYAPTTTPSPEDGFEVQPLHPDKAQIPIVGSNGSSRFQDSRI
Experiment: Glycine uptake inhibition assay (mGlyT-1b)
Type: cell-based
Conditions: inhibition of [3H]-glycine uptake in Flp-in-CHO cells transfected with mGlyT-1b cDNA; 20 min preincubation at 22° C.; read-out: IC50 (μM) at GlyT-1
Procedure: DMEM complete medium: Nutrient mixture F-12 (Gibco Life-technologies), fetal bovine serum (FBS) 5%, (Gibco life technologies), Penicillin/Streptomycin1% (Gibco life technologies), Hygromycin 0.6 mg/ml (Gibco life technologies), Glutamine 1 mM Gibco life technologies)
Uptake buffer (UB): 150 mM NaCl, 10 mM Hepes-Tris, pH 7.4, 1 mM CaCl2, 2.5 mM KCl, 2.5 mM MgSO4, 10 mM (+) D-glucose.
Flp-in™-CHO (Invitrogen Cat n^o R758-07) cells stably transfected with mGlyT1b cDNA.
Glycine Uptake Inhibition Assay (mGlyT-1b)
On day 1 mammalian cells, (Flp-in™-CHO), transfected with mGlyT-1b cDNA, were plated at the density of 40,000 cells/well in complete F-12 medium, without hygromycin in 96-well culture plates. On day 2, the medium was aspirated, and the cells were washed twice with uptake buffer (UB). The cells were then incubated for 20 min at 22° C. with either (i) no potential competitor, (ii) 10 mM non-radioactive glycine, (iii) a concentration of a potential inhibitor. A range of concentrations of the potential inhibitor was used to generate data for calculating the concentration of inhibitor resulting in 50% of the effect (e.g. IC50, the concentration of the competitor inhibiting glycine uptake of 50%). A solution was then immediately added containing [^3H]-glycine 60 nM (11-16 Ci/mmol) and 25 μM non-radioactive glycine. The plates were incubated with gentle shaking, and the reaction was stopped by aspiration of the mixture and washing (three times) with ice-cold UB. The cells were lysed with scintillation liquid, shaken 3 hours, and the radioactivity in the cells was counted using a scintillation counter.

IC50	Structure (SMILES)
0.031 µM	CC(Oc1ccc(S(C)(=O)=O)cc1C(=O)N1Cc2cc(Cl)c(Cl)cc2C1)C(F)(F)F (racemic) [Example 9, rac-(5,6-Dichloro-1,3-dihydro-isoindol-2-yl)-[5-methanesulfonyl-2-(2,2,2-trifluoro-1-methyl-ethoxy)-phenyl]-methanone]
0.032 µM	C[C@H](Oc1ccc(S(C)(=O)=O)cc1C(=O)N1Cc2ccc(C3CCCOC3)cc2C1)C(F)(F)F (mixture of isomers) [Example 312, [5-Methanesulfonyl-2-((S)-2,2,2-trifluoro-1-methyl-ethoxy)-phenyl]-[5-(tetrahydro-pyran-3-yl)-1,3-dihydro-isoindol-2-yl]-methanone]
0.01 µM	C[C@H](Oc1ccc(S(C)(=O)=O)cc1C(=O)N1Cc2cc(Cl)c(C3CCOC3)cc2C1)C(F)(F)F (mixture of isomers) [Example 359, [5-Chloro-6-(tetrahydro-furan-3-yl)-1,3-dihydro-isoindol-2-yl]-[5-methanesulfonyl-2-((S)-2,2,2-trifluoro-1-methyl-ethoxy)-phenyl]-methanone]
0.022 µM	CC(C)Oc1ccc(S(C)(=O)=O)cc1C(=O)N1Cc2ccc(C3CCOC3)cc2C1 (racemic) [Example 360, rac-(2-Isopropoxy-5-methanesulfonyl-phenyl)-[5-(tetrahydro-furan-3-yl)-1,3-dihydro-isoindol-2-yl]-methanone]
0.002 µM	CS(=O)(=O)c1ccc(OCC(F)(F)C(F)(F)F)c(C(=O)N2Cc3ccc(C4CCOC4)cc3C2)c1 (racemic) [Example 361, rac-[5-Methanesulfonyl-2-(2,2,3,3,3-pentafluoro-propoxy)-phenyl]-[5-(tetrahydro-furan-3-yl)-1,3-dihydro-isoindol-2-yl]-methanone]
0.005 µM	CS(=O)(=O)c1ccc(OCC(F)(F)C(F)(F)F)c(C(=O)N2Cc3ccc(C4CCCOC4)cc3C2)c1 (racemic) [Example 364, rac-[5-Methanesulfonyl-2-(2,2,3,3,3-pentafluoro-propoxy)-phenyl]-[5-(tetrahydro-pyran-3-yl)-1,3-dihydro-isoindol-2-yl]-methanone]
0.042 µM	CC(C)Oc1ccc(S(C)(=O)=O)cc1C(=O)N1Cc2cc(Cl)c(Cl)cc2C1 [Example 5, (5,6-Dichloro-1,3-dihydro-isoindol-2-yl)-(2-isopropoxy-5-methanesulfonyl-phenyl)-methanone]
0.021 µM	C[C@H](Oc1ccc(S(C)(=O)=O)cc1C(=O)N1Cc2ccc(C(F)(F)F)cc2C1)C(F)(F)F [Example 15, [5-Methanesulfonyl-2-((S)-2,2,2-trifluoro-1-methyl-ethoxy)-phenyl]-(5-trifluoromethyl-1,3-dihydro-isoindol-2-yl)-methanone]
0.048 µM	CC(C)Sc1ccc(S(C)(=O)=O)cc1C(=O)N1Cc2cc(Cl)c(Cl)cc2C1 [Example 16, (5,6-Dichloro-1,3-dihydro-isoindol-2-yl)-(2-isopropylsulfanyl-5-methanesulfonyl-phenyl)-methanone]
0.012 µM	C[C@@H](Oc1ccc(S(C)(=O)=O)cc1C(=O)N1Cc2ccc(C(F)(F)F)cc2C1)C(F)(F)F [Example 17, [5-Methanesulfonyl-2-((R)-2,2,2-trifluoro-1-methyl-ethoxy)-phenyl]-(5-trifluoromethyl-1,3-dihydro-isoindol-2-yl)-methanone]
0.019 µM	Cc1cc2c(cc1Cl)CN(C(=O)c1cc(S(C)(=O)=O)ccc1O[C@@H](C)C(F)(F)F)C2 [Example 24, (5-Chloro-6-methyl-1,3-dihydro-isoindol-2-yl)-[5-methanesulfonyl-2-((S)-2,2,2-trifluoro-1-methyl-ethoxy)-phenyl]-methanone]
0.022 µM	COc1cc2c(cc1Cl)CN(C(=O)c1cc(S(C)(=O)=O)ccc1O[C@@H](C)C(F)(F)F)C2 [Example 27, (5-Chloro-6-methoxy-1,3-dihydro-isoindol-2-yl)-[5-methanesulfonyl-2-((S)-2,2,2-trifluoro-1-methyl-ethoxy)-phenyl]-methanone]
0.037 µM	CCSc1ccc2c(c1)CN(C(=O)c1cc(S(C)(=O)=O)ccc1O[C@@H](C)C(F)(F)F)C2 [Example 32, (5-Ethylsulfanyl-1,3-dihydro-isoindol-2-yl)-[5-methanesulfonyl-2-((S)-2,2,2-trifluoro-1-methyl-ethoxy)-phenyl]-methanone]
0.034 µM	CNS(=O)(=O)c1ccc(OC(C)C)c(C(=O)N2Cc3ccc(C(F)(F)F)cc3C2)c1 [Example 43, 4-Isopropoxy-N-methyl-3-(5-trifluoromethyl-1,3-dihydro-isoindole-2-carbonyl)-benzenesulfonamide]
0.034 µM	Cc1cc2c(cc1Cl)CN(C(=O)c1cc(S(C)(=O)=O)ccc1O[C@H](C)C(F)(F)F)C2 [Example 49, (5-Chloro-6-methyl-1,3-dihydro-isoindol-2-yl)-[5-methanesulfonyl-2-((R)-2,2,2-trifluoro-1-methyl-ethoxy)-phenyl]-methanone]
0.036 µM	CCSc1cc2c(cc1Cl)CN(C(=O)c1cc(S(C)(=O)=O)ccc1O[C@H](C)C(F)(F)F)C2 [Example 59, (5-Chloro-6-ethylsulfanyl-1,3-dihydro-isoindol-2-yl)-[5-methanesulfonyl-2-((R)-2,2,2-trifluoro-1-methyl-ethoxy)-phenyl]-methanone]
0.049 µM	COc1cc2c(cc1Cl)CN(C(=O)c1cc(S(C)(=O)=O)ccc1SC(C)C)C2 [Example 71, (5-Chloro-6-methoxy-1,3-dihydro-isoindol-2-yl)-(2-isopropylsulfanyl-5-methanesulfonyl-phenyl)-methanone]
0.031 µM	COc1ccc2c(c1)CN(C(=O)c1cc(S(C)(=O)=O)ccc1OC(C)C)C2 [Example 74, (2-Isopropoxy-5-methanesulfonyl-phenyl)-(5-methoxy-1,3-dihydro-isoindol-2-yl)-methanone]
0.042 µM	Cc1cc2c(cc1C(F)(F)F)CN(C(=O)c1cc(S(C)(=O)=O)ccc1O[C@@H](C)C(F)(F)F)C2 [Example 99, [5-Methanesulfonyl-2-((S)-2,2,2-trifluoro-1-methyl-ethoxy)-phenyl]-(5-methyl-6-trifluoromethyl-1,3-dihydro-isoindol-2-yl)-methanone]
0.045 µM	COc1cc2c(cc1C(F)(F)F)CN(C(=O)c1cc(S(C)(=O)=O)ccc1O[C@@H](C)C(F)(F)F)C2 [Example 100]
0.046 µM	C[C@H](Oc1ccc(S(C)(=O)=O)cc1C(=O)N1Cc2ccc(OC(F)(F)F)cc2C1)C(F)(F)F [Example 103, [5-Methanesulfonyl-2-((S)-2,2,2-trifluoro-1-methyl-ethoxy)-phenyl]-(5-trifluoro-methoxy-1,3-dihydro-isoindol-2-yl)-methanone]
0.038 µM	CS(=O)(=O)c1ccc(OCC2CCC2)c(C(=O)N2Cc3cnc(C(F)(F)F)cc3C2)c1 [Example 118, (2-Cyclobutyl-methoxy-5-methane-sulfonyl-phenyl)-(6-trifluoromethyl-1,3-dihydro-pyrrolo [3,4-c]pyridin-2-yl)-methanone]
0.047 µM	CS(=O)(=O)c1ccc(-c2ccc(F)cc2)c(C(=O)N2Cc3cnc(C(F)(F)F)cc3C2)c1 [Example 121, (4′-Fluoro-4-methanesulfonyl-biphenyl-2-yl)-(6-trifluoromethyl-1,3-dihydro-pyrrolo[3,4-c]pyridin-2-yl)-methanone]
0.03 µM	CS(=O)(=O)c1ccc(OCC2CCC2)c(C(=O)N2Cc3cc(C(F)(F)F)cnc3C2)c1 [Example 124, (2-Cyclobutyl-methoxy-5-methane-sulfonyl-phenyl)-(3-trifluoromethyl-5,7-dihydro-pyrrolo[3,4-b]pyridin-6-yl)-methanone]

Structure (SMILES)	IC50
CC(C)COc1ccc(S(C)(=O)=O)cc1C(=O)N1Cc2ccc(C(F)(F)F)cc2C1 [Example 35, (2-Isobutoxy-5-methanesulfonyl-phenyl)-(5-trifluoromethyl-1,3-dihydro-isoindol-2-yl)-methanone]	0.028 µM
Cc1cc2c(cc1Cl)CN(C(=O)c1cc(S(C)(=O)=O)ccc1OCC(C)C)C2 [Example 56, (5-Chloro-6-methyl-1,3-dihydro-isoindol-2-yl)-(2-isobutoxy-5-methanesulfonyl-phenyl)-methanone]	0.016 µM
